The target in assay [1] is SOS1:KRAS (G12C) interaction (Homo sapiens (Human), UniProt Q07889). Nature of the assay: SOS1 KRas(G12C) FRET Assay. The conditions noted are these: 0.5 nM His10-SOS1 (res. 564-1049), 2.5 nM GST-KRAS G12C (res. 1-169), 2 hrs at RT. It counts as binding. The gist of the method:
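GST-KRAS G12C (res. 1-169) at 2.5 nM and His10-SOS1 (res. 564-1049) at 0.5 nM, final, in PBS with 0.1% BSA, 5 mM MgCl2, 100 mM KF, 5 mM DTT and 0.5% DMSO. After 2 h at RT, FRET read at 665/615 nm and normalized to DMSO and no-SOS1 controls. IC50 by non-linear regression.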

The target in a further assay is human SOS1 (Homo sapiens (Human), UniProt Q07889). Nature of the assay: Surface Plasmon Resonance (SPR) SOS1 Binding Assay. The conditions noted are these: biotinylated SOS1 (res. 564-1049), Biacore 8K, 25° C., kinetic or steady state fit, 1:1 binding; read-out: hSOS1 KD. The method, boiled down: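 Biotinylated Avi-tagged human SOS1 (res. 564-1049) captured on streptavidin chip (~3,000 RU); compounds injected 60 s, dissociation 600 s, at 25° C in Tris pH 8.0 buffer with 5% DMSO. Reference- and blank-subtracted; KD from kinetic or steady-state 1:1 binding fit.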
Sequence of human SOS1 (Q07889 564-1049): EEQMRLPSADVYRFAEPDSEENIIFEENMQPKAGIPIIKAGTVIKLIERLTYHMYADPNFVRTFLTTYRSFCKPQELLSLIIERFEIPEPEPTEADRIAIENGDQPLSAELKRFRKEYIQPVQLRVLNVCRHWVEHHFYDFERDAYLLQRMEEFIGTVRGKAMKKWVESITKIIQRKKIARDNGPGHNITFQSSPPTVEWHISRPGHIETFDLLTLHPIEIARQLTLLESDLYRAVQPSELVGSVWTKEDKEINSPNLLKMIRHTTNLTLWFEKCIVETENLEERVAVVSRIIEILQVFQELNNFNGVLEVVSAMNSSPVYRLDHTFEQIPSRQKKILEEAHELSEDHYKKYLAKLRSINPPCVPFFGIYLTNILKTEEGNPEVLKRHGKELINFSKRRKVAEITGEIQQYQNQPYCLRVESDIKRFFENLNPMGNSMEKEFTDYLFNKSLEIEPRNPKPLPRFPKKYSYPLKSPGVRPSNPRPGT

Sequence of SOS1:KRAS (G12C) interaction (Q07889 564-1049, stated change not applied): as the sequence (Q07889 564-1049) above

Regarding `C[C@@H](NC(=O)c1cn([C@H]2CC2(F)F)c(=O)cc1N[C@H]1[C@@H]2CN(C)C[C@@H]21)c1cccc(C(F)F)c1F` [Example 93, 1-((S)-2,2-difluorocyclopropyl)-N-((R)-1-(3-(difluoromethyl)-2-fluorophenyl)ethyl)-4-(((lR,5S,6s)-3-methyl-3-azabicyclo[3.1.0]hexan-6-yl)amino)-6-oxo-1,6-dihydropyridine-3-carboxamide], in assay [1], the IC50 worked out at 23.2 nM. Also, on human SOS1, the Kd came to 13 nM.

The compound `C[C@@H](NC(=O)c1cn([C@H]2CC2(C)C)c(=O)cc1N[C@H]1[C@@H]2CN(C)C[C@@H]21)c1cccc(C(F)F)c1F` [Example 95, N-((R)-1-(3-(difluoromethyl)-2-fluorophenyl)ethyl)-1-((S)-2,2-dimethylcyclopropyl)-4-(((lR,5S,6s)-3-methyl-3-azabicyclo[3.1.0]hexan-6-yl)amino)-6-oxo-1,6-dihydropyridine-3-carboxamide] came in with an IC50 in assay [1] of 21.6 nM. Besides, the Kd at human SOS1 amounted to 12 nM.

In assay [1], `C[C@@H](NC(=O)c1cn([C@H]2C[C@@H](F)C2)c(=O)cc1N[C@H]1[C@@H]2CN(C)C[C@@H]21)c1cccc(C(F)F)c1F` [Example 96, N-((R)-1-(3-(difluoromethyl)-2-fluorophenyl)ethyl)-1-((1s,3S)-3-fluorocyclobutyl)-4-(((1R,5S,6s)-3-methyl-3-azabicyclo[3.1.0]hexan-6-yl)amino)-6-oxo-1,6-dihydropyridine-3-carboxamide] displayed an IC50 of 15.7 nM. For the same compound, at human SOS1, the Kd was found to be 9 nM.

Take `C[C@@H](NC(=O)c1cn([C@H]2C[C@H](F)C2)c(=O)cc1N[C@H]1[C@@H]2CN(C)C[C@@H]21)c1cccc(C(F)F)c1F` [Example 97, N-((R)-1-(3-(difluoromethyl)-2-fluorophenyl)ethyl)-1-((1r,3R)-3-fluorocyclobutyl)-4-(((1R,5S,6s)-3-methyl-3-azabicyclo[3.1.0]hexan-6-yl)amino)-6-oxo-1,6-dihydropyridine-3-carboxamide]: in assay [1], the IC50 worked out at 16.7 nM. Besides, the Kd on human SOS1 turned out to be 7 nM.

`C[C@@H](NC(=O)c1cn(C23CC(C)(C2)C3)c(=O)cc1N[C@H]1[C@@H]2CN(C)C[C@@H]21)c1cccc(C(F)F)c1F` [Example 98, N-((R)-1-(3-(difluoromethyl)-2-fluorophenyl)ethyl)-4-(((1R,5S,6s)-3-methyl-3-azabicyclo[3.1.0]hexan-6-yl)amino)-1-(3-methylbicyclo[1.1.1]pentan-1-yl)-6-oxo-1,6-dihydropyridine-3-carboxamide] returned an IC50 in assay [1] of 13.4 nM. The Kd at human SOS1 amounted to 6 nM.

Regarding `CC(C)n1cc(C(=O)N[C@H](C)c2cccc(C(F)F)c2F)c(N[C@H]2[C@@H]3CN(C)C[C@@H]32)cc1=O` [Example 99, N-((R)-1-(3-(difluoromethyl)-2-fluorophenyl)ethyl)-1-isopropyl-4-(((1R,5S,6s)-3-methyl-3-azabicyclo[3.1.0]hexan-6-yl)amino)-6-oxo-1,6-dihydropyridine-3-carboxamide], in assay [1], half-maximal inhibition (IC50) was put at 64.8 nM. For the same compound, the Kd at human SOS1 amounted to 30 nM.

In turn, `C[C@@H](NC(=O)c1cn(C2CC(F)(F)C2)c(=O)cc1N[C@H]1[C@@H]2CN(C)C[C@@H]21)c1cccc(C(F)F)c1F` [Example 100, 1-(3,3-difluorocyclobutyl)-N-((R)-1-(3-(difluoromethyl)-2-fluorophenyl)ethyl)-4-(((1R,5S,6s)-3-methyl-3-azabicyclo[3.1.0]hexan-6-yl)amino)-6-oxo-1,6-dihydropyridine-3-carboxamide] gave an IC50 in assay [1] of 18.2 nM. In addition, the Kd at human SOS1 came out at 10 nM.

The compound `C[C@@H](NC(=O)c1cn(C2CC2)c(=O)cc1N[C@H]1[C@@H]2CN(C)C[C@@H]21)c1cccc(C(F)F)c1F` [Example 101, 1-cyclopropyl-N-((R)-1-(3-(difluoromethyl)-2-fluorophenyl)ethyl)-4-(((1R,5S,6s)-3-methyl-3-azabicyclo[3.1.0]hexan-6-yl)amino)-6-oxo-1,6-dihydropyridine-3-carboxamide] came in with an IC50 in assay [1] of 24 nM. The Kd on human SOS1 came to 11 nM.

The record behind these values is patent US20230348424A1, “HETEROCYCLIC COMPOUNDS AND METHODS OF USE” (Schrödinger, Inc., priority 2022, published 2023).
